In brackets after ≈: the same amount, converted by molar mass. Several values for one entry are separate records, joined by “and”; a condition that tells them apart may be missing. Identical values can stand only once. Like-named read-outs stand apart in the source and are kept apart here.
Key:
[1] = Solubility in various vehicles (HPLC); assay type: physicochemical
Protocol: Initially, the solubility of the compound was determined in various vehicles. The amount dissolved was measured by HPLC (Table 2). […] Based on this acidic nature, a tartrate buffer was selected. It was foun that the molar ratio of active β-blocking agent to buffer was critical, 1:1 to 3:1 to stabilized product.
Samples were dissolved or diluted with the mobile phase, methanol--pH 3.4 phosphate buffer solution. The resulting solutions were diluted with benzoic acid internal standard solution and chromatographed on a octadecyl silane column with detection at 229 nm. […] The method is linear, quantitative, rugged and reproducible with a sensitivity of 2 ug/ml. Either peak height or peak area ratios can be used for quantitation.

[2] = Comparison of degradation in aqueous solution and in the formulation (forced degradation, HPLC); assay type: physicochemical; conditions: 75° C.; for degraded at 168 h: one week
Protocol: The sulfate salt of the compound of Formula II in aqueous solution when stored at 75° C. degraded about 70% in one week. In contrast, when formulated in the pharmaceutical composition as noted and placed under the same storage conditions, it degraded only about 25%.
The results of this comparison are represented in FIG. 5. Samples for the study were prepared and tested as follows:
b. Aqueous at 75° C.--10 mg of sulfate salt of Formula II were dissolved in 100 mL of deionized water. A 2 mL portion of this solution was transferred to a vial and placed in a 75° C. oven. A series of vials were prepared and evaluated at various intervals. Each time 2 mL of mobile phase was added to the vial (final conc. 50 μg/mL) for subsequent HPLC evaluation. The results are plotted as curve B in FIG. 5.
c. Forced Degradation of the Formulation was carried out using a solution containing the sulfate salt of Formula II, 100 mg/mL, in Acetate Buffer (0.35M) containing 20% of Propylene Glycol:Ethanol (50:50) having a pH 3.17. The formulation solution was divided into 2 parts, placed in 55° C. and 75° C. ovens and tested periodically. To evaluate the formulation, the solution was diluted 1 mL to 100 mL of mobile phase, then 5 mL to 100 mL in mobile phase (final conc.--50 μg/mL) for subsequent HPLC evaluation.
The rates of decomposition were monitored by HPLC and compared to the respective initial concentrations at 220 nm. In order to insure that the peak was that of the sulfate salt and not an impurity, excipient or product of decomposition, the peak was scanned using a variable wavelength detector ([…]). Using the Perkin-Elmer LC-75 Detector Stop Flow System described below:
A 70 μL portion of the sulfate salt degraded samples were injected manually into the HPLC L-75 equipped with a variable wavelength detector, programmed to scan wavelengths from 200 to 320 nm. When the sulfate salt reached the detector cell, the flow of mobile phase was stopped and the scan initiated from 200 to 320 nm. In this manner, only the peak corresponding to the sulfate salt was measured.

β-adrenergic receptor = test: β-blocking activity and recovery from β-blockade in anesthetized dogs (isoproterenol heart rate response, 3-hour infusion); assay type: in vivo; conditions: for Potency: 3-hour infusion, rate adjusted to about 50% isoproterenol inhibition, pentobarbital-anesthetized dogs; for Recovery Time 50%: 50% recovery from β-blockade after termination of infusion; for % I (percent inhibition of heart rate response to isoproterenol): end of 3-hour infusion, isoproterenol 0.5 μg/kg
Protocol: The duration of β-blockade was determined in vivo using pentobarbital-anesthetized dogs instrumented for measurement of heart rate using a Beckman cardiotachometer triggered electronically by a phasic aortic blood pressure signal. Both vagus nerves were severed in the cervical region and the animals were mechanically ventilated. The experimental design used employed a 3-hour infusion of test compound. Bolus doses of isoproterenol (0.5 μg/kg) were used to assess the degree of β-blockade and recovery from β-blockade after […] of the infusion. The doses were spaced at 10-minute intervals and were given before, during and following the infusion of test compounds. The infusion rate was adjusted so that at the end of the 3-hour infusion period the degree of isoproterenol inhibition averaged about 50% of control.

[3] = Shelf life / storage stability of solutions; assay type: physicochemical; conditions: within a week; room temperature; without stabilization; read-out: potency loss
pKa = assay type: physicochemical
[4] = Kinetic degradation study in solution at 75° C.; assay type: physicochemical
Protocol: In order to determine the pH at which the formulation would show maximum stability, a kinetic degradation study was employed. pH of solutions ranging from 2-4, containing 0.1M each of the compound of formula II and tartrate buffer were stored at 75° C. At various time intervals, samples were taken and assayed for the compound.
The kinetic data obtained was plotted as a log of drug concentration versus time. The apparent first-order rate constants were calculated from the slopes of the linear regression lines fitted to log (C)=log (Co)[…] where C is drug concentration at time t, Co is the initial drug concentration and k is the apparent first-order rate constant.
The logarithm of the potency versus time in all cases produced linear plots. The apparent first-order rate constants were calculated from the slopes of the linear regression lines (not shown) and are presented in FIG. 1.
The ratio of the two organic vehicles, namely propylene glycol and alcohol were determined by making solutions of the compound of formula II in the vehicle and testing the stability at 75° C. Samples were removed after specified times and measured for potency.
FIG. 3 illustrates the stability of the compound of formula II in hydroalcoholic solution buffered at pH 3 by sodium tartrate. An identical stability study was conducted with a solution without buffering agent (FIG. 4).

`CC(C)(CNC(N)=O)NCC(O)COC(=O)c1ccccc1F` (centres unmarked) gave a Solubility ([1]; Alcohol USP (EtOH)) of 2.24 % w/w, a Solubility ([1]; Polyethylene Glycol 200 USP (PEG)) of 2.64 % w/w and a Solubility ([1]; Propylene Glycol USP (PG)) of 3.47 % w/w. The Solubility ([1]; WFI (5%), EtOH (45%), PEG (50%)) was 5.21 % w/w, the Solubility ([1]; WFI (5%), EtOH (45%), PG (50%)) was 7.20 % w/w and the Solubility ([1]; WFI (5%), EtOH (95%)) was 7.50 % w/w. The Solubility ([1]; WFI (5%), PEG (95%)) was 3.83 % w/w, the Solubility ([1]; WFI (5%), PG (95%), read-out: Solubility) was 56 mg/mL (≈ 171 mM) and the Solubility ([1]; Water for Injection USP (WFI), read-out: Solubility) was 507 mg/mL (≈ 1550 mM). For the same compound, the degraded at 168 h ([2]; formulated in the pharmaceutical composition) was roughly 25%, the increase in stability ([2]; formulated vs aqueous solution) was “three fold increase in stability” and the degraded at 168 h ([2]; aqueous solution (deionized water), aqueous solution) was roughly 70%.

In the case of `CC(=O)NCC(C)(C)NCC(O)COC(=O)c1ccccc1F` (centres unmarked) [Compound 4], the Potency (β-adrenergic receptor) is reported as 2.7 mg/kg/180 min.

In the case of `CC(C)C(=O)NCC(C)(C)NCC(O)COC(=O)c1ccccc1F` (centres unmarked) [Compound 5], the Potency (β-adrenergic receptor) is reported as 0.6 mg/kg/180 min.

`CC(C)(CNC(=O)C1CCCCC1)NCC(O)COC(=O)c1ccccc1F` (centres unmarked) [Compound 6] showed a Potency (β-adrenergic receptor) of 1.4 mg/kg/180 min.

For `CC(C)(CNC(=O)C1CCCCC1)NCC(O)COC(=O)c1ccccc1F` (centres unmarked) [Compound 7], the Potency (β-adrenergic receptor) was 1.8 mg/kg/180 min, the “Recovery Time 50%” value (β-adrenergic receptor; dogs) was 8 min and the “Recovery Time 80%” value (β-adrenergic receptor; 80% recovery from β-blockade after termination of infusion, dogs) was 19 min. The “% I (percent inhibition of heart rate response to isoproterenol)” value (β-adrenergic receptor; dogs) was 68%.

In the case of `O=C(CC1CCCCC1)NCCNCC(O)COC(=O)c1ccccc1F` (centres unmarked) [Compound 8], the “Recovery Time 50%” value (β-adrenergic receptor; dogs) is reported as 3,4 min and the “% I (percent inhibition of heart rate response to isoproterenol)” value (β-adrenergic receptor; dogs) is reported as 43% and 55%.

In the case of `CC(C)(CNC(=O)N1CCOCC1)NCC(O)COC(=O)c1ccc(O)c(O)c1` (centres unmarked) [Compound 12], the Potency (β-adrenergic receptor) is reported as 0.08 mg/kg/180 min.

Work on `CC(C)(CNC(N)=O)NCC(O)COC(=O)c1ccccc1F` (centres unmarked) [Compound 17] yielded a Potency (β-adrenergic receptor) of 0.7 mg/kg/180 min.

Work on `CCOC(=O)NCC(C)(C)NCC(O)COC(=O)c1ccccc1F` (centres unmarked) [Compound 21] yielded a Potency (β-adrenergic receptor) of 6.5 ± 1.8 mg/kg/180 min.

In the case of `CC(C)NCC(O)COc1cccc2ccccc12` (centres unmarked) [Propranolol, reference compound], the Potency (β-adrenergic receptor) is reported as 0.2 mg/kg/180 min and the “% I (percent inhibition of heart rate response to isoproterenol)” value (β-adrenergic receptor; dogs) is reported as 67 ± 6%.

For `CC(C)(CNC(N)=O)NCC(O)COC(=O)c1ccccc1F` (centres unmarked) [compound of formula II, N-(1,1-Dimethyl-2-ureidoethyl)-2-hydroxy-3-(O-fluorobenzoyloxy) propylamine], the degraded at 168 h [3] was 10%, the pKa (pKa) was 8.17 and the “propylene glycol to alcohol ratio and degradation” value ([4]; FIG. 2) was 1:1 ratio of the two substances minimizes degradation. The “rate of degradation (slope)” value ([4]; hydroalcoholic solution (15% propylene glycol, 15% alcohol) buffered at pH 3 by sodium tartrate) was 0.0387 day⁻¹, the “rate of degradation (slope)” value ([4]; hydroalcoholic solution (15% propylene glycol, 15% alcohol), unbuffered) was 0.0709 day⁻¹ and the “stability of buffered relative to unbuffered preparation” value ([4]; pH 3 sodium tartrate vs no buffer) was “approximately twice as stable”.

Reference: US4579867A, “Stable pharmaceutical compositions of short-acting β-adrenergic receptor blocking agents” (American Hospital Supply Corporation, priority 1984, dated 1986)
